Consider 2 molecules from US6878690B2, “Compounds and methods” (PharmAxis Pty Ltd., priority 2000, dated 2005).

For experiment [1], the system named is passively transferred EAE. Nature of the experiment: Passively transferred EAE induced with concanavalin A stimulated spleen lymphoblasts (Example 24). More on the design: key to Clinical score - Treated, Mean: 0 = asymptomatic to 5 = hind limb paralysis. Format: in vivo, Lewis rats. As to conditions: for Clinical score - Treated, Mean: group mean; for Mean maximum clinical score / DI (disease index): treated group. The method, then: In a similar type of experiment outlined in Example 20, and in order to study the effect of the agents of the present invention in vivo on a disease caused by T lymphocyte migration into a specific tissue, further experiments were performed in a Lewis rat model of passively transferred EAE. Here, myelin basic protein (MBP)-specific T lymphocytes were generated in spleens of Lewis rats that had been immunised with guinea pig MBP in Freund's complete adjuvant. Thus, in this manner donor T lymphocytes were generated from male 12-20 week old Lewis rats weighing 200 to 250 g. These rats were injected intradermally in a footpad of each hind foot with an emulsion of guinea pig myelin basic protein (MBP; prepared according to the method of Deibler et al., 1972; incorporated herein by reference) in Freund's complete adjuvant (0.1 ml). The adjuvant emulsion was prepared by emulsifying equal volumes of a mixture of 85% light mineral oil (0.8417 g/mL (Sigma)) plus 15% mannide monooleate (Sigma) containing Mycobacterium butyricum (4 mg/ml; Difco) and normal saline containing guinea pig myelin basic protein (0.25 mg/ml). Thus, the total dose per rat was 25 micrograms of MBP and 400 micrograms of M. butyricum. Ten days following injection, the rats were euthanased and the spleens removed aseptically by blunt dissection and placed into mixed lymphocyte culture medium. This medium was prepared in the normal fashion from Dulbecco's Modified Eagle's Medium (DMEM; GIBCO, Grand Island, N.Y.) supplemented with glucose (4 g/L), folic acid (6 mg/L), L-asparagine (36 mg/L), sodium bicarbonate (2 g/L), L-arginine (116 mg/L), L-glutamine (2 mM), sodium pyruvate (1 mM), HEPES (10 mM), 2-mercaptoethanol (5×10^−5 M), penicillin, streptomycin, neomycin, and 10% fetal calf serum. A single cell suspension was prepared from the spleens in the usual manner by gently pushing them through a stainless steel screen. The cells were washed twice and cultured asceptically for 72 hours at 37° C. in a humidified atmosphere containing 5% carbon dioxide at a concentration of 2 million cells per milliliter in the presence of concanavalin A (2 microgram/mL). The cells were collected and washed twice in Hanks balanced salt solution. Cells were resuspended in Hanks balanced salt solution and each recipient animal (10-12 weeks old female Lewis rats; 160-180 g) received 40-42.5 million lymphoblasts by lateral tail vein injection in a volume of 0.5 ml.
In a typical experiment 4-5 recipient rats were anesthetised with diethyl ether and implanted with mini-osmotic pumps (Alzet 2001, Alza Corp., Palo Alto Calif., USA) containing the test compound. A second group of 4 animals, the control group, under ether anesthesia, were implanted with Alzet 2001 pumps containing normal saline. Mini-osmotic pumps were implanted three days after cell transfer. Disease severity (clinical score) was scored on an arbitrary scale of severity ranging from 0 to 5 as follows: 0, asymptomatic; 1, flaccid distal half of tail; 2, entire tail flaccid; 3, ataxia, difficulty in righting reflex; 4, hind limb weakness; 5, hind limb paralysis. Mean maximum clinical scores were calculated and the disease index (DI) for each group was calculated as described in Example 20. The results of these experiments are outlined in Tables 6, 7 and 8.

For experiment [2], the system named is DTH response to 2,4-dinitrofluorobenzene (DNFB). The experiment in a line: Delayed-type hypersensitivity (DTH) response to DNFB, ear swelling. The class given is in vivo, Balb/C mice. The note with it: for Mean percentage decrease in ear swelling in treated animals: versus saline controls; for Mean Difference, Treated: group mean; for Difference (right minus left ear), Treated / Right ear thickness, Treated / Left ear thickness, Treated: individual mice, mini-osmotic pump intraperitoneally, 24 hours after challenge; for Right ear thickness, Treated: challenged ear; for Left ear thickness, Treated: control (unchallenged) ear. An excerpt:
In the present Example, a murine model of Type IV hypersensitivity or delayed-type hypersensitivity (DTH) response to cutaneous contact with the chemical hapten 2,4-dinitrofluorobenzene (DNFB) (Aldrich Chemical Company Inc, USA) was used as a model to measure the anti-inflammatory effects of compounds of the present invention. Specific pathogen-free 8-12 week old female Balb/C mice, weighing 19-21 g, were sensitised in a similar manner to that described by Klimuk et al., (Klimuk et al., 1999) by applying a solution of DNFB (0.5% in acetone:olive oil (4:1, v/v); 30 microliters,) onto a 2 cm^2 shaved area of the abdomen. After 7 days, the animals were anesthetised with diethyl ether and 8 microliters of DNFB (0.35% in acetone:olive oil (4:1, v/v) was applied to the dorsal and ventral surfaces of the right pinna. Prior to regaining consciousness, the mice were implanted intraperitoneally with Alzet 2001 mini-osmotic pumps (Alza Corp., Palo Alto Calif., USA) containing phosphoric acid mono-[6-(3-hexyloxy-propyl)-3,4,5-trihydroxy-tetrahydro-pyran-2-ylmethyl] ester, sodium salt in normal saline. The dose delivered was 50 mg/kg/day. Control animals for this group received saline delivered in identical mini-osmotic pumps. A second experimental group of mice received phosphoric acid mono-[3-(3,4,5-trihydroxy-6-phosphonooxymethyl-tetrahydro-pyran-2-yl)-propyl] ester disodium salt via one-week delivery Alzet 2001 mini-osmotic pumps implanted intraperitoneally. This compound was delivered at a dose of 40 mg/kg/day. Control animals for this group received saline delivered in identical mini-osmotic pumps. In a third experiment a separate group of mice received (3,4,5-trihydroxy-6-phosphonooxymethyl-tetrahydro-pyran-2-yl)-acetic acid disodium salt via one-week delivery Alzet 2001 mini-osmotic pumps that were placed intraperitoneally. This compound was delivered at 45 mg/kg/day. The control group for this experiment received identical mini-osmotic pumps containing normal saline. In a fourth experiment a group of mice received 3-phenyl-2-[2-(3,4,5-trihydroxy-6-phosphonooxymethyl-tetrahydro-pyran-2-yl)-acetylamino]-propionic acid monosodium salt via one-week delivery Alzet 2001 mini-osmotic pumps that were placed subcutaneously. This compound was delivered at 62 mg/kg/day. The control group for this experiment received identical mini-osmotic pumps containing normal saline. In a fifth experiment a group of mice received hexanoic acid 3-(3,4,5-trihydroxy-6-phosphonooxymethyl-tetrahydro-pyran-2-yl)-propyl ester sodium salt via one-week delivery Alzet 2001 mini-osmotic pumps that were placed subcutaneously. This compound was delivered at 40 mg/kg/day. The control group for this experiment received identical mini-osmotic pumps containing normal saline.
Twenty-four hours after challenge the mice were lightly anesthetised with diethyl ether and the thickness of the left and right pinnae measured (in millimeters) using a dial gauge micrometer (Interapid, Switzerland). Care was taken to measure only the outer two thirds of the ear. The increase in ear thickness initiated by the DTH response was determined by subtracting the measurement of the left ear (untreated) from the right ear (challenged).
In Table 4, values in the columns labeled Left and Right are measurements of ear thickness in millimeters of the control and challenged ears respectively.

“And” between values parts separate entries of the source, which are not always exact repeats. Identical values can stand only once.

Consider `O=P([O-])([O-])OCCCC1OC(COP(=O)(O)O)C(O)C(O)C1O.[Na+].[Na+]` (centres unmarked) [phosphoric acid mono-[3-(3,4,5-trihydroxy-6-phosphonooxymethyl-tetrahydro-pyran-2-yl)-propyl] ester disodium salt], for which the “Clinical score - Treated, Mean” value in experiment [1] (day 4, 40 mg/kg/day intraperitoneally) came out at 0; in experiment [1] (day 5, 40 mg/kg/day intraperitoneally) it was 1.375; in experiment [1] (day 7, 40 mg/kg/day intraperitoneally) it was 2.125; in experiment [1] (day 8, 40 mg/kg/day intraperitoneally), 1.75; in experiment [1] (day 9, 40 mg/kg/day intraperitoneally), 0.75; in experiment [1] (day 10, 40 mg/kg/day intraperitoneally), 0.125. The “Clinical score - Treated” value was 0 in experiment [1] (day 4, individual rats, 40 mg/kg/day intraperitoneally, scale 0 to 5); 2 (2×) and 0 and 1.5 in experiment [1] (day 5; individual rats; 40 mg/kg/day intraperitoneally; scale 0 to 5; disodium salt, 40 mg/kg/day)); 2.5 and 1 and 3 and 2 in experiment [1] (day 7; individual rats; 40 mg/kg/day intraperitoneally; scale 0 to 5; disodium salt, 40 mg/kg/day)); 2 (2×) and 0.5 and 2.5 in experiment [1] (day 8; individual rats; 40 mg/kg/day intraperitoneally; scale 0 to 5; disodium salt, 40 mg/kg/day)); 1 (3×) and 0 in experiment [1] (day 9; individual rats; 40 mg/kg/day intraperitoneally; scale 0 to 5; disodium salt, 40 mg/kg/day)); 0 (3×) and 0.5 in experiment [1] (day 10; individual rats; 40 mg/kg/day intraperitoneally; scale 0 to 5; disodium salt, 40 mg/kg/day)). Besides, in experiment [1] (40 mg/kg/day intraperitoneally, control 3.0), the “Mean maximum clinical score” value was “clinical score 2.3”. In experiment [1] (40 mg/kg/day intraperitoneally, control DI 45.0), the “DI (disease index)” value is reported as “DI - 18.6 Mean maximum”. In addition, the “Mean percentage decrease in ear swelling in treated animals” value in experiment [2] (40 mg/kg/day intraperitoneally) is on record as “Mean percentage decrease in ear swelling in treated animals: 30%”. For the same molecule, in experiment [2] (40 mg/kg/day intraperitoneally, saline control mean 0.086), the “Mean Difference, Treated” value amounted to 0.060 millimeters. For the same molecule, in experiment [2] (40 mg/kg/day, disodium salt), the “Difference (right minus left ear), Treated” value was 0.07 millimeters and 0.03 millimeters and 0.02 millimeters and 0.06 millimeters and 0.12 millimeters. Besides, in experiment [2] (40 mg/kg/day, disodium salt), the “Right ear thickness, Treated” value is 0.28 millimeters (2×) and 0.25 millimeters and 0.23 millimeters and 0.33 millimeters. Moreover, the “Left ear thickness, Treated” value in experiment [2] (40 mg/kg/day, disodium salt) is 0.21 millimeters (3×) and 0.22 millimeters (2×).
With `CCCCCCOCCCC1OC(COP(=O)([O-])O)C(O)C(O)C1O.[Na+]` (centres unmarked) [phosphoric acid mono-[6-(3-hexyloxy-propyl)-3,4,5-trihydroxy-tetrahydro-pyran-2-ylmethyl] ester, monosodium salt], the “Clinical score - Treated, Mean” value in experiment [1] (day 5, 50 mg/kg/day subcutaneously) was found to be 1; in experiment [1] (day 6, 50 mg/kg/day subcutaneously) it was 2.75; in experiment [1] (day 7, 50 mg/kg/day subcutaneously), 2.5; in experiment [1] (day 8, 50 mg/kg/day subcutaneously), 2.25; in experiment [1] (day 9, 50 mg/kg/day subcutaneously), 1.25; in experiment [1] (day 10, 50 mg/kg/day subcutaneously), 0.5. Besides, the “Clinical score - Treated” value in experiment [1] (day 5, individual rats, 50 mg/kg/day subcutaneously, scale 0 to 5, monosodium salt, 50 mg/kg/day) was 0.5 (2×) and 1 and 2; in experiment [1] (day 6, individual rats, 50 mg/kg/day subcutaneously, scale 0 to 5, monosodium salt, 50 mg/kg/day), 3 and 2 (2×) and 4; in experiment [1] (day 7, individual rats, 50 mg/kg/day subcutaneously, scale 0 to 5, monosodium salt, 50 mg/kg/day), 2 (3×) and 4; in experiment [1] (day 8, individual rats, 50 mg/kg/day subcutaneously, scale 0 to 5, monosodium salt, 50 mg/kg/day) it was 2 (3×) and 3; in experiment [1] (day 9, individual rats, 50 mg/kg/day subcutaneously, scale 0 to 5, monosodium salt, 50 mg/kg/day) it was 1 (2×) and 1.5 (2×); in experiment [1] (day 10, individual rats, 50 mg/kg/day subcutaneously, scale 0 to 5, monosodium salt, 50 mg/kg/day), 0 (2×) and 1 (2×). The “Mean maximum clinical score” value in experiment [1] (50 mg/kg/day subcutaneously, control 4.5) is “clinical score 3”. Besides, in experiment [1] (50 mg/kg/day subcutaneously, control DI 67.2), the “DI (disease index)” value is on record as “DI - 34.1 Mean maximum”. In addition, the “Mean percentage decrease in ear swelling in treated animals” value in experiment [2] (50 mg/kg/day intraperitoneally) was “Mean percentage decrease in ear swelling in treated animals: 36.7%”. The “Mean Difference, Treated” value in experiment [2] (50 mg/kg/day intraperitoneally, saline control mean 0.098) was 0.062 millimeters. Further, in experiment [2] (50 mg/kg/day, monosodium salt), the “Difference (right minus left ear), Treated” value was 0.03 millimeters and 0.05 millimeters (2×) and 0.08 millimeters and 0.1 millimeters. In addition, the “Right ear thickness, Treated” value in experiment [2] (50 mg/kg/day, monosodium salt) was 0.25 millimeters (2×) and 0.26 millimeters and 0.3 millimeters and 0.32 millimeters. Moreover, in experiment [2] (50 mg/kg/day, monosodium salt), the “Left ear thickness, Treated” value is 0.22 millimeters (3×) and 0.21 millimeters and 0.2 millimeters.
